Here are results for five molecules from PubChem BioAssay (NCI).

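48-hour exposure; five concentrations; linearly interpolated endpoints. At the GI50, growth is halved. TGI: concentration producing complete growth inhibition.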

Test systems include 786-0 renal; A549 NSCLC; BT-549 breast; CAKI-1 renal; HOP-92 NSCLC; LOX IMVI melanoma; NCI-H23 lung; SF-268 CNS; SR leukemia; U251 CNS.
Common to all, as to experiment: NCI-60 cell line screen, 48 h

`CSc1ccc(C2=NN(C(=O)c3ccc(N)cc3)C(c3ccc(F)cc3)C2)cc1` (centres undefined): the GI50 with 786-0 renal is 13500 nM; in the test with A549 NSCLC, 13700 nM; in the test on BT-549 breast, 12300 nM; in the test on CAKI-1 renal it was 15400 nM; with HOP-92 NSCLC, 2360 nM; in the test with LOX IMVI melanoma it was 2530 nM. The GI50 in the test on NCI-H23 lung was 17500 nM; in the test on SF-268 CNS, 3090 nM; with SR leukemia, 1520 nM; in the test with U251 CNS, 3560 nM. For the same molecule, the TGI in the test with 786-0 renal is 27100 nM; in the test on A549 NSCLC, 32700 nM; in the test with BT-549 breast, 28100 nM; in the test on CAKI-1 renal, 37400 nM; in the test on HOP-92 NSCLC, 17700 nM; in the test on LOX IMVI melanoma, 6840 nM. Moreover, the TGI in the test with NCI-H23 lung turned out to be 37900 nM; in the test on SF-268 CNS, 12600 nM; in the test on SR leukemia, 4310 nM; with U251 CNS, 12600 nM.
For the molecule `CCCCCc1c(C)[nH]c(/C=c2\[nH]/c(=C3/C=c4ccccc4=N3)cc2OC)c1C`, the GI50 was 49 nM in the test on 786-0 renal; 73.2 nM in the test on A549 NSCLC; 80 nM with BT-549 breast; 42.5 nM in the test with CAKI-1 renal; 23.6 nM in the test with HOP-92 NSCLC; 24.8 nM in the test with LOX IMVI melanoma. In addition, the GI50 was 236 nM with NCI-H23 lung, 77 nM in the test on SF-268 CNS, 33.5 nM in the test with SR leukemia and 67 nM in the test with U251 CNS. In addition, the TGI with 786-0 renal came to 242 nM; with A549 NSCLC, 636 nM; with BT-549 breast, 2140 nM; in the test on CAKI-1 renal, 1560 nM; in the test with HOP-92 NSCLC it was 203 nM; with LOX IMVI melanoma, 67.6 nM. For the same molecule, the TGI with NCI-H23 lung was determined as 3100 nM; with SF-268 CNS, 2430 nM; in the test on SR leukemia, 529 nM; in the test with U251 CNS, 627 nM.
For the molecule `Cc1cc2c(C(C)C)c(O)c(O)c(C=O)c2c(O)c1-c1c(C)cc2c(C(C)C)c(O)c(O)c(C=O)c2c1O` (tested in a mixture with another compound), the GI50 was 819 nM with 786-0 renal; 468 nM in the test on A549 NSCLC; 1260 nM in the test with BT-549 breast; 966 nM in the test with CAKI-1 renal; 223 nM in the test with HOP-92 NSCLC; 1160 nM in the test on LOX IMVI melanoma. In addition, the GI50 in the test on NCI-H23 lung is 464 nM; in the test on SF-268 CNS it was 1060 nM; in the test on SR leukemia, 1460 nM; in the test with U251 CNS, 502 nM. Besides, the TGI in the test with 786-0 renal was found to be 3290 nM; in the test with A549 NSCLC it was 2380 nM; with BT-549 breast, 3760 nM; with CAKI-1 renal it was 4810 nM; with HOP-92 NSCLC it was 909 nM; in the test with LOX IMVI melanoma, 2540 nM. Besides, the TGI stood at 2030 nM with NCI-H23 lung, 3260 nM in the test on SF-268 CNS, 17800 nM in the test on SR leukemia and 1930 nM with U251 CNS.
As to `ClC1=C(Cl)C(Cl)=C(Cl)C1=Cc1ccc(Cl)cc1`, the GI50 in the test with 786-0 renal is 604 nM; in the test with A549 NSCLC, 918 nM; in the test on BT-549 breast it was 428 nM; in the test on CAKI-1 renal, 429 nM; in the test with HOP-92 NSCLC, 1530 nM; with LOX IMVI melanoma, 233 nM. The GI50 in the test with NCI-H23 lung was 796 nM; in the test on SF-268 CNS, 419 nM; in the test on SR leukemia, 253 nM; with U251 CNS, 344 nM. For the same molecule, the TGI is 1640 nM in the test with 786-0 renal; 2540 nM in the test with A549 NSCLC; 1580 nM in the test on BT-549 breast; 3840 nM with HOP-92 NSCLC; 710 nM in the test with LOX IMVI melanoma; 2850 nM with NCI-H23 lung. The TGI with SF-268 CNS turned out to be 1100 nM; with SR leukemia, 1720 nM; in the test on U251 CNS, 1230 nM.
With `O=C(/C=C/c1cccc(B(O)O)c1)c1cccc(B(O)O)c1`, the GI50 was 1750 nM in the test with 786-0 renal; 2120 nM in the test on A549 NSCLC; 1060 nM with BT-549 breast; 2850 nM with CAKI-1 renal; 1530 nM in the test with HOP-92 NSCLC; 760 nM with LOX IMVI melanoma. Also, the GI50 in the test with NCI-H23 lung is 1810 nM; in the test on SF-268 CNS, 1800 nM; with SR leukemia, 314 nM; in the test on U251 CNS, 406 nM. For the same molecule, the TGI worked out at 3710 nM with 786-0 renal; 5810 nM in the test on A549 NSCLC; 2370 nM in the test with BT-549 breast; 12600 nM in the test on CAKI-1 renal; 3590 nM in the test with HOP-92 NSCLC; 2030 nM in the test on LOX IMVI melanoma. Also, the TGI in the test on NCI-H23 lung came out at 4440 nM; with SF-268 CNS it was 5560 nM; in the test on SR leukemia it was 1650 nM; with U251 CNS, 1520 nM.
